# Measurements taken from patent publication US20250235543A1, “MODIFIED PROTEINS AND PROTEIN DEGRADERS” (Cullgen (Shanghai), Inc., priority 2021, published 2025).
# Like-named read-outs stand apart in the source and are kept apart here.
# Assays:
# cyclin D1 = test: Cyclin D1 percentage degradation in Calu-1 cells (immunoblotting); format: cell-based; conditions: 16 hours
# In short: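 Cells were rinsed once in cold PBS and lysed in cold RIPA buffer containing protease and phosphatase inhibitors, with gentle agitation at 4° C. for 30 min. Lysates were spun at 13,000 rpm for 10 min at 4° C., protein was measured by BCA, and samples were boiled in Laemmli buffer at 99° C. for 5 min before SDS-PAGE immunoblotting.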
# CDK4 = molecular target: T1, CDK4 (Homo sapiens, UniProt P11802); test: CDK4 percentage degradation in Calu-1 cells (immunoblotting); format: cell-based; conditions: for inhibition at 10 µM: read-out: CDK4 Degradation (10 μM); for inhibition at 0.2 µM: read-out: CDK4 Degradation (200 nM)
# T1 construct: endogenous in cells; host or cells: Calu-1
# In short: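 Cultured cells were rinsed once in cold PBS and lysed in cold RIPA buffer containing protease and phosphatase inhibitors, with gentle agitation at 4° C. for 30 min. Lysates were centrifuged at 13,000 rpm for 10 min at 4° C., and protein was quantified by BCA. Samples were then separated by SDS-PAGE, detected with ECL, and the CDK4 bands quantified in Image Lab.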
# T1 sequence (P11802 2-303 limits assumed): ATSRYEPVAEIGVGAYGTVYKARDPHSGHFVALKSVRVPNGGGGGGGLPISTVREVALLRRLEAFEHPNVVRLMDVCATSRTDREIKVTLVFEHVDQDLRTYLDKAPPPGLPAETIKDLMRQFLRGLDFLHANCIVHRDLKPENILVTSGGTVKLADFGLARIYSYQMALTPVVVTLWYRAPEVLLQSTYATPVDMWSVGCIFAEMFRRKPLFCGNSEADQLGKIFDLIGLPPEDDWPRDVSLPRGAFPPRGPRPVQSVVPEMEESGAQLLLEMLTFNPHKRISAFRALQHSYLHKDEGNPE
# T1 sequence (P24385 whole entry partner): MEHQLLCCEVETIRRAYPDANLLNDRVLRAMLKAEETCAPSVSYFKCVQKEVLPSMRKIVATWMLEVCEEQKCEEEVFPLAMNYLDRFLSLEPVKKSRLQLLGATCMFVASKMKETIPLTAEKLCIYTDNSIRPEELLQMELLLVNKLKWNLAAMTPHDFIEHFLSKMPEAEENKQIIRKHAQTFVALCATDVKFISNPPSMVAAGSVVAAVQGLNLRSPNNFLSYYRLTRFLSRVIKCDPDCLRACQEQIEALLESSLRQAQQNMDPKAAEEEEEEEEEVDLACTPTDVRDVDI
# T1 sequence (Q16531 2-1140 limits assumed, further chain): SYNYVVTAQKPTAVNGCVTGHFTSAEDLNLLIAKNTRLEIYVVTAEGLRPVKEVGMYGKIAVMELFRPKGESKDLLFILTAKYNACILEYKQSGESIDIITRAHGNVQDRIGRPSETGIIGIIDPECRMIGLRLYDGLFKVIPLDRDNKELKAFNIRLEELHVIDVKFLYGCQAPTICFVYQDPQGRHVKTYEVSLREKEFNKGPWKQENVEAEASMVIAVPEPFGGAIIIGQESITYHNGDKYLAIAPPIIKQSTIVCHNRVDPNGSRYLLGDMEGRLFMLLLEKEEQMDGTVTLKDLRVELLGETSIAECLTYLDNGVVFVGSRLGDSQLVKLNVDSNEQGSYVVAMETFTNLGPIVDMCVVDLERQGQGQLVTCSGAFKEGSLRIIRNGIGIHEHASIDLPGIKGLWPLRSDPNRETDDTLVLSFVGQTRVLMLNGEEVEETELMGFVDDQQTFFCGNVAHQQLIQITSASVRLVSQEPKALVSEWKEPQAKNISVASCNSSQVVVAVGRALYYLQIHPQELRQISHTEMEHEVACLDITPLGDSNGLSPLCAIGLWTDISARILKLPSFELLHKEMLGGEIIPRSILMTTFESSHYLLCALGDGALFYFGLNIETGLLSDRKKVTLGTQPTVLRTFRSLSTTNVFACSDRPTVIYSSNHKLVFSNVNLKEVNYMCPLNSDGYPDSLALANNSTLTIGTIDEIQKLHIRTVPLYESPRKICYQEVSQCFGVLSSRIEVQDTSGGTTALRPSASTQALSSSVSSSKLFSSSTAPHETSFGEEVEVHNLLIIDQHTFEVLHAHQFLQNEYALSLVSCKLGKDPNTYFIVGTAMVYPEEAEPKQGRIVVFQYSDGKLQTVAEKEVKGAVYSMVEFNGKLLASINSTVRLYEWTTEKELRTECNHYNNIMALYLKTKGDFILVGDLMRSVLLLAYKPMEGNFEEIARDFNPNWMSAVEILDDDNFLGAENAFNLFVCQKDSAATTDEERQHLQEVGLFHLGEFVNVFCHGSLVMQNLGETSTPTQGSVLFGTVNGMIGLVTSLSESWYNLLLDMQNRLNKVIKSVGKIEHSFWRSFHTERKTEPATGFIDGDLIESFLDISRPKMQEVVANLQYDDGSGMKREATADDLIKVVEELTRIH
SMILES,"inhibition at 10 µM (CDK4; Calu-1 cells, 16 hours) [%]","inhibition at 0.2 µM (CDK4; Calu-1 cells, 200 nM, 16 hours) [%]",CyclinD1 Degradation (10 μM) (cyclin D1),CyclinD1 Degradation (200 nM) (cyclin D1),"inhibition at 0.2 µM (CDK4; Calu-1, 16 h) [%]"
"CC(=O)c1c(C)c2cnc(Nc3ccc(N4CCN(CC(=O)NCCOCCOCCOCCOCCOCCNC(=O)COc5ccc(C(=O)Nc6ncc(C)s6)c(C)c5)CC4)cn3)nc2n(C2CCCC2)c1=O [CPD-019, 4-((23-(4-(6-((6-Acetyl-8-cyclopentyl-5-methyl-7-oxo-7,8-dihydropyrido[2,3-d]pyrimidin-2-yl)amino)pyridin-3-yl)piperazin-1-yl)-2,22-dioxo-6,9,12,15,18-pentaoxa-3,21-diazatricosyl)oxy)-2-methyl-N-(5-methylthiazol-2-yl)benzamide]",,< 30,,D (protein percentage degradation <30%),
"CC(=O)c1nc(NC(=O)c2ccc(NCCOCCOCCOCCOCCOCCNC(=O)CN3CCN(c4ccc(Nc5ncc6c(C)c(C(C)=O)c(=O)n(C7CCCC7)c6n5)nc4)CC3)cc2C)sc1C [CPD-045, N-(4-Acetyl-5-methylthiazol-2-yl)-4-((1-(4-(6-((6-acetyl-8-cyclopentyl-5-methyl-7-oxo-7,8-dihydropyrido[2,3-d]pyrimidin-2-yl)amino)pyridin-3-yl)piperazin-1-yl)-2-oxo-6,9,12,15,18-pentaoxa-3-azaicosan-20-yl)amino)-2-methylbenzamide]",,50 to 80,,A (protein percentage degradation >=80%),
"Cc1nc(NC(=O)c2ccccc2NC(=O)CCNC(=O)CN2CCN(c3ccc(Nc4ncc5cc(C(=O)N(C)C)n(C6CCCC6)c5n4)nc3)CC2)sc1C [CPD-287, 7-Cyclopentyl-2-((5-(4-(2-((3-((2-((4,5-dimethylthiazol-2-yl)carbamoyl)phenyl)amino)-3-oxopropyl)amino)-2-oxoethyl)piperazin-1-yl)pyridin-2-yl)amino)-N,N-dimethyl-7H-pyrrolo[2,3-d]pyrimidine-6-carboxamide]",30 to 50,,A (protein percentage degradation >= 80%),,
"CNc1ccc(C(=O)Nc2ccc(N(C)C)nn2)c(NCCCCCNC(=O)CN2CCN(c3ccc(Nc4ncc5c(C)c(C(C)=O)c(=O)n(C6CCCC6)c5n4)nc3)CC2)c1 [CPD-377, 2-((5-(2-(4-(6-((6-Acetyl-8-cyclopentyl-5-methyl-7-oxo-7,8-dihydropyrido[2,3-d]pyrimidin-2-yl)amino)pyridin-3-yl)piperazin-1-yl)acetamido)pentyl)amino)-N-(6-(dimethylamino)pyridazin-3-yl)-4-(methylamino)benzamide]",,50 to 80,,A (protein percentage degradation >=80%),
"CC(=O)c1c(C)c2cnc(Nc3ccc(N4CCN(CC(=O)NCCOCCOCCOCCOCCNC(=O)COc5ccc(C(=O)Nc6ncc(C)s6)c(C)c5)CC4)cn3)nc2n(C2CCCC2)c1=O [CPD-041, 4-((20-(4-(6-((6-Acetyl-8-cyclopentyl-5-methyl-7-oxo-7,8-dihydropyrido[2,3-d]pyrimidin-2-yl)amino)pyridin-3-yl)piperazin-1-yl)-2,19-dioxo-6,9,12,15-tetraoxa-3,18-diazaicosyl)oxy)-2-methyl-N-(5-methylthiazol-2-yl)benzamide]",,< 30,,D (protein percentage degradation <30%),
"CC(=O)c1c(C)c2cnc(Nc3ccc(N4CCN(CC(=O)NCCCCCNC(=O)c5ccc(C(=O)Nc6ncc(C)s6)c(C)c5)CC4)cn3)nc2n(C2CCCC2)c1=O [CPD-009, N^4-(5-(2-(4-(6-((6-Acetyl-8-cyclopentyl-5-methyl-7-oxo-7,8-dihydropyrido[2,3-d]pyrimidin-2-yl)amino)pyridin-3-yl)piperazin-1-yl)acetamido)pentyl)-2-methyl-N^1-(5-methylthiazol-2-yl)terephthalamide]",,< 30,,D (protein percentage degradation <30%),
"CCCCNc1ccc(NC(=O)CCOCCOCCNC(=O)CN2CCN(c3ccc(Nc4ncc5c(C)c(C(C)=O)c(=O)n(C6CCCC6)c5n4)nc3)CC2)c(C(=O)Nc2nc(C)c(C)s2)c1 [CPD-148, 2-(3-(2-(2-(2-(4-(6-((6-Acetyl-8-cyclopentyl-5-methyl-7-oxo-7,8-dihydropyrido[2,3-d]pyrimidin-2-yl)amino)pyridin-3-yl)piperazin-1-yl)acetamido)ethoxy)ethoxy)propanamido)-5-(butylamino)-N-(4,5-dimethylthiazol-2-yl)benzamide]",,< 30,,D (protein percentage degradation <30%),
"CC(=O)c1c(C)c2cnc(Nc3ccc(N4CCN(CC(=O)NCCCCCNc5cc(Cl)ccc5C(=O)Nc5ccc(C)c(C6CC6)n5)CC4)cn3)nc2n(C2CCCC2)c1=O [CPD-378, 2-((5-(2-(4-(6-((6-acetyl-8-cyclopentyl-5-methyl-7-oxo-7,8-dihydropyrido[2,3-d]pyrimidin-2-yl)amino)pyridin-3-yl)piperazin-1-yl)acetamido)pentyl)amino)-4-chloro-N-(6-cyclopropyl-5-methylpyridin-2-yl)benzamide]",,< 30,,"B (protein percentage degradation <80%, and >=50%)",
"CC(=O)c1c(C)c2cnc(Nc3ccc(N4CCN(CC(=O)NCCCCNc5ccc(C)c(C(=O)Nc6nc(C)c(C)s6)c5)CC4)cn3)nc2n(C2CCCC2)c1=O [CPD-088, 5-((4-(2-(4-(6-((6-Acetyl-8-cyclopentyl-5-methyl-7-oxo-7,8-dihydropyrido[2,3-d]pyrimidin-2-yl)amino)pyridin-3-yl)piperazin-1-yl)acetamido)butyl)amino)-N-(4,5-dimethylthiazol-2-yl)-2-methylbenzamide]",,< 30,,D (protein percentage degradation <30%),
"Cc1nc(NC(=O)c2ccccc2NC(=O)CCOCCOCCOCCNC(=O)CN2CCN(c3ccc(Nc4ncc(F)c(-c5cc(F)c6nc(C)n(C(C)C)c6c5)n4)nc3)CC2)sc1C [CPD-310, N-(4,5-Dimethylthiazol-2-yl)-2-(1-(4-(6-((5-fluoro-4-(4-fluoro-1-isopropyl-2-methyl-1H-benzo[d]imidazol-6-yl)pyrimidin-2-yl)amino)pyridin-3-yl)piperazin-1-yl)-2-oxo-6,9,12-trioxa-3-azapentadecan-15-amido)benzamide]",< 30,,A (protein percentage degradation >= 80%),,
"CC(=O)c1c(C)c2cnc(Nc3ccc(N4CCN(C(=O)CCCCCNc5ccc(C)c(C(=O)Nc6nc(C)c(C)s6)c5)CC4)cn3)nc2n(C2CCCC2)c1=O [CPD-129, 5-((6-(4-(6-((6-Acetyl-8-cyclopentyl-5-methyl-7-oxo-7,8-dihydropyrido[2,3-d]pyrimidin-2-yl)amino)pyridin-3-yl)piperazin-1-yl)-6-oxohexyl)amino)-N-(4,5-dimethylthiazol-2-yl)-2-methylbenzamide]",,,,D (protein percentage degradation <30%),< 30

# More lines, main results first:
"inhibition at 10 µM (CDK4; Calu-1 cells, 16 hours) [%]","inhibition at 0.2 µM (CDK4; Calu-1 cells, 200 nM, 16 hours) [%]",SMILES,CyclinD1 Degradation (10 μM) (cyclin D1),CyclinD1 Degradation (200 nM) (cyclin D1),"inhibition at 0.2 µM (CDK4; Calu-1, 16 h) [%]"
< 30,,"Cc1nc(NC(=O)c2ccccc2NC(=O)CCCCCCCCNC(=O)CN2CCN(Cc3ccc(Nc4ncc(F)c(-c5cc(F)c6nc(C)n(C(C)C)c6c5)n4)nc3)CC2)sc1C [CPD-279, N-(4,5-Dimethylthiazol-2-yl)-2-(9-(2-(4-((6-((5-fluoro-4-(4-fluoro-1-isopropyl-2-methyl-1H-benzo[d]imidazol-6-yl)pyrimidin-2-yl)amino)pyridin-3-yl)methyl)piperazin-1-yl)acetamido)nonanamido)benzamide]",D (protein percentage degradation < 30%),,
50 to 80,,"Cc1nc(NC(=O)c2ccccc2NC(=O)CCOCCNC(=O)CN2CCN(c3ccc(Nc4ncc5cc6n(c5n4)C4(CCCCC4)CNC6=O)nc3)CC2)sc1C [CPD-322, N-(4,5-Dimethylthiazol-2-yl)-2-(3-(2-(2-(4-(6-((6′-oxo-7′,8′-dihydro-6′H-spiro[cyclohexane-1,9′-pyrazino[1′,2′:1,5]pyrrolo[2,3-d]pyrimidin]-2′-yl)amino)pyridin-3-yl)piperazin-1-yl)acetamido)ethoxy)propanamido)benzamide]",A (protein percentage degradation >= 80%),,
50 to 80,,"Cc1nc(NC(=O)c2ccccc2NC(=O)CCOCCOCCOCCOCCNC(=O)CN2CCN(c3ccc(Nc4ncc5cc6n(c5n4)C4(CCCCC4)CNC6=O)nc3)CC2)sc1C [CPD-325, N-(4,5-Dimethylthiazol-2-yl)-2-(2-oxo-1-(4-(6-((6′-oxo-7′,8′-dihydro-6′H-spiro[cyclohexane-1,9′-pyrazino[1′,2′:1,5]pyrrolo[2,3-d]pyrimidin]-2′-yl)amino)pyridin-3-yl)piperazin-1-yl)-6,9,12,15-tetraoxa-3-azaoctadecan-18-amido)benzamide]",A (protein percentage degradation >= 80%),,
,< 30,"CC(=O)c1c(C)c2cnc(Nc3ccc(N4CCN(CC(=O)NCCCCCCCNC(=O)COc5ccc(C(=O)Nc6ncc(C)s6)c(C)c5)CC4)cn3)nc2n(C2CCCC2)c1=O [CPD-037, 4-(2-((7-(2-(4-(6-((6-Acetyl-8-cyclopentyl-5-methyl-7-oxo-7,8-dihydropyrido[2,3-d]pyrimidin-2-yl)amino)pyridin-3-yl)piperazin-1-yl)acetamido)heptyl)amino)-2-oxoethoxy)-2-methyl-N-(5-methylthiazol-2-yl)benzamide]",,D (protein percentage degradation <30%),
,30 to 50,CC(=O)c1c(C)c2cnc(Nc3ccc(N4CCN(CC(=O)NCCCCCCCCCNC(=O)CNc5ccc(C(=O)Nc6ncc(C)s6)c(C)c5)CC4)cn3)nc2n(C2CCCC2)c1=O [CPD-035],,"C (protein percentage degradation <50%, and >=30%)",
